One block for each molecule: values may come before it.
How the values were obtained:
V257M hFMO3 = biological target: T1, V257M hFMO3 (Homo sapiens, UniProt P31513, V257M); test: N-oxygenation kinetics with purified V257M polymorphic variant of hFMO3 (LC-MS); format: in vitro ADME
T1 construct: made in house; host or cells: E. coli JM109 (vector pJL2)
T1 sequence (P31513 1-532 V257M): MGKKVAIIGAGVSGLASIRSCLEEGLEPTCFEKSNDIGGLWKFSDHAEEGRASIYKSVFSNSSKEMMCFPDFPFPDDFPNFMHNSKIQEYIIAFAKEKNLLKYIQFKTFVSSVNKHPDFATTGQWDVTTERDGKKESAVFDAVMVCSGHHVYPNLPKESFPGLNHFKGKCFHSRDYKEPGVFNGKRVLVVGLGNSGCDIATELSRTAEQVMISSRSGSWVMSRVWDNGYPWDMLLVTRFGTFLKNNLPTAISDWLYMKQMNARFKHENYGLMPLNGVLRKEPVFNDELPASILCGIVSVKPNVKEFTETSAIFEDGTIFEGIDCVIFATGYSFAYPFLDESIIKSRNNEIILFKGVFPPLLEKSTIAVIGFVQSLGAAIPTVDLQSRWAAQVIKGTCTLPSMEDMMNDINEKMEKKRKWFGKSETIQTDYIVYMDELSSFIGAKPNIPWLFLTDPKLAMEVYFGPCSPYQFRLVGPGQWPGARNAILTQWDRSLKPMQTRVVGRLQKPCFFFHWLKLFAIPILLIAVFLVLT
Experimental: (§1) Enzymatic reactions were carried out with the purified WT and V257M polymorphic variant in the presence of NADPH and increasing amounts of each substrate as reported in the experimental section. […] The kcat and Km values for V257M were approximately half of that of the wild-type (Figure 3A,B) and the kcat for the wild-type enzyme was at least twice as much of the kcat for V257M.
(§2) The enzyme and NADPH were mixed first and the reaction was initiated by the addition of substrate, preventing thermal degradation of the enzyme. […] The incubations were terminated by the addition of 0.10 mL of ice-cold methanol and 150 μL verapamil as internal standard (IS).
(§3) Prior to LC-MS analysis the reaction mixtures were filtered through a Microcon centrifugal membrane with 3 kDa cutoff (Millipore, Billercia, MA, USA). Substrates and their metabolites were separated using Agilent 1200 HPLC (Agilent Technologies Inc., Santa Clara, CA, USA) equipped with a narrow bore reversed-phase column Zorbax Eclipse XDB-C18, 2.1 × 150 mm, 3.5 μm (Agilent Technologies, Santa Clara, CA, USA) and using a binary solvent system composed of double distilled water with 0.01% formic acid (A), and acetonitrile (ACN) with 0.1% formic acid (B) at flow rate of 0.2 mL min^−1. The initial mobile phase was composed of 20% of solvent B and it was increased to 70% over a period of 3 min and kept 4 min for isocratic separations of substrate, metabolite and internal standard (IS). Finally, the organic solvent was increased to 100% in 30 s for washing the column. Before follower injection, initial mobile phase was re-established for 10 min.
(§4) For quantitative purpose, standards and samples were analysed by LC-ESI-MS/MS in MRM mode using the above-indicated parameters. […] Spectral data were processed using data analysis software of 6300 Series Ion Trap LC/MS 4.0 (Bruker Daltonik GmbH, Bremen, Germany). Metabolite formation was quantified by comparing peak area ratios (metabolite/internal standard) of four data sets of incubations for each Michaelis-Menten curve to ratios obtained from a standard curve containing known amounts of the […].

wild type hFMO3 = biological target: T2, wild type hFMO3 (Homo sapiens, UniProt P31513); test: N-oxygenation kinetics with purified wild-type hFMO3 (LC-MS); format: in vitro ADME
T2 construct: made in house; host or cells: E. coli JM109 (vector pJL2)
T2 sequence (P31513 1-532): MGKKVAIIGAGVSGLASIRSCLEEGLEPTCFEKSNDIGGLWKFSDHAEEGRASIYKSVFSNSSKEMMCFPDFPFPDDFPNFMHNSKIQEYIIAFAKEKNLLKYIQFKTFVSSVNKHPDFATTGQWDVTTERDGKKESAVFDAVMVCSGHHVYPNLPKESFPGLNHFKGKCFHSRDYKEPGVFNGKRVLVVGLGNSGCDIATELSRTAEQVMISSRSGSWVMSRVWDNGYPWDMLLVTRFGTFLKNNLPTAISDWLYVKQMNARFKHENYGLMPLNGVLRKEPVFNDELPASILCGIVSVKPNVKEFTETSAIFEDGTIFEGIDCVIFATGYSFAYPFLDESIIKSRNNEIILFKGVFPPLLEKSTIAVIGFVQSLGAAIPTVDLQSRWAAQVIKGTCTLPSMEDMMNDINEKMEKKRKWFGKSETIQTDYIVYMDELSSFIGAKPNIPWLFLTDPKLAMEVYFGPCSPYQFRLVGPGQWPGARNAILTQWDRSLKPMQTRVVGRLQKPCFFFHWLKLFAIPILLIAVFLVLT
Experimental: as §1, §2, §3, §4

[1] = substrate: CO[C@@H](C(=O)N1Cc2n[nH]c(NC(=O)c3ccc(N4CCN(C)CC4)cc3)c2C1)c1ccccc1; test: as above; format: in vitro ADME, human; settings: other: WT hFMO3, N-oxide formation, 0.17 μM enzyme, 0.5 mM NADPH, pH 7.4, 37 °C
Experimental: as §1, §2, §3, §4

[2] = substrate: Cc1cc(Nc2cc(N3CCN(C)CC3)nc(Sc3ccc(NC(=O)C4CC4)cc3)n2)[nH]n1; test: as above; format: in vitro ADME, human; settings: other: WT hFMO3, N-oxide formation, 0.17 μM enzyme, 0.5 mM NADPH, pH 7.4, 37 °C
Experimental: as §1, §2, §3, §4

[3] = substrate: CO[C@@H](C(=O)N1Cc2n[nH]c(NC(=O)c3ccc(N4CCN(C)CC4)cc3)c2C1)c1ccccc1; test: N-oxygenation kinetics with purified V257M polymorphic variant of hFMO3 (LC-MS); format: in vitro ADME, human; settings: other: V257M hFMO3, N-oxide formation, 0.17 μM enzyme, 0.5 mM NADPH, pH 7.4, 37 °C
Experimental: as §1, §2, §3, §4

[4] = substrate: Cc1cc(Nc2cc(N3CCN(C)CC3)nc(Sc3ccc(NC(=O)C4CC4)cc3)n2)[nH]n1; test: as above; format: in vitro ADME, human; settings: other: V257M hFMO3, N-oxide formation, 0.17 μM enzyme, 0.5 mM NADPH, pH 7.4, 37 °C
Experimental: as §1, §2, §3, §4

[5] = V257M hFMO3, N-oxide formation, pH 7.4, 37 °C
[6] = V257M hFMO3, N-oxide formation, values in text
[7] = WT hFMO3, N-oxide formation, pH 7.4, 37 °C

Vmax (V257M hFMO3; [5]): 0.18 ± 0.01 nmol/min/mg FMO3
kcat (V257M hFMO3; [6]): 0.0533 s⁻¹
Vmax (V257M hFMO3; V257M, values in text): 0.18 nmol min^−1 mg FMO3
Vmax (wild type hFMO3; [7]): 0.57 ± 0.03 nmol/min/mg FMO3
kcat (wild type hFMO3; [7]): 0.165 s⁻¹
Vmax (wild type hFMO3; wild-type enzyme, values in text): 0.57 nmol min^−1 mg FMO3
Molecule: CO[C@@H](C(=O)N1Cc2n[nH]c(NC(=O)c3ccc(N4CCN(C)CC4)cc3)c2C1)c1ccccc1 [Danusertib]

Vmax (V257M hFMO3; [5]): 0.25 ± 0.01 nmol/min/mg FMO3
kcat (V257M hFMO3; [6]): 0.0717 s⁻¹
Vmax (V257M hFMO3; V257M hFMO3, values in text): 248 pmol/min/mg FMO3
Vmax (wild type hFMO3; [7]): 0.54 ± 0.02 nmol/min/mg FMO3
kcat (wild type hFMO3; [7]): 0.155 s⁻¹
Vmax (wild type hFMO3; wild type hFMO3, values in text): 536 pmol/min/mg FMO3
Molecule: Cc1cc(Nc2cc(N3CCN(C)CC3)nc(Sc3ccc(NC(=O)C4CC4)cc3)n2)[nH]n1 [Tozasertib]

Continued, molecule first:

B1: wild type hFMO3 (Homo sapiens) (protein)
chain: MGKKVAIIGAGVSGLASIRSCLEEGLEPTCFEKSNDIGGLWKFSDHAEEGRASIYKSVFSNSSKEMMCFPDFPFPDDFPNFMHNSKIQEYIIAFAKEKNLLKYIQFKTFVSSVNKHPDFATTGQWDVTTERDGKKESAVFDAVMVCSGHHVYPNLPKESFPGLNHFKGKCFHSRDYKEPGVFNGKRVLVVGLGNSGCDIATELSRTAEQVMISSRSGSWVMSRVWDNGYPWDMLLVTRFGTFLKNNLPTAISDWLYVKQMNARFKHENYGLMPLNGVLRKEPVFNDELPASILCGIVSVKPNVKEFTETSAIFEDGTIFEGIDCVIFATGYSFAYPFLDESIIKSRNNEIILFKGVFPPLLEKSTIAVIGFVQSLGAAIPTVDLQSRWAAQVIKGTCTLPSMEDMMNDINEKMEKKRKWFGKSETIQTDYIVYMDELSSFIGAKPNIPWLFLTDPKLAMEVYFGPCSPYQFRLVGPGQWPGARNAILTQWDRSLKPMQTRVVGRLQKPCFFFHWLKLFAIPILLIAVFLVLT
notes: made in house; host or cells: E. coli JM109 (vector pJL2)
Km [1]: 57.3 ± 8.3 µM
kcat [1]: 0.165 ± 0.01 s⁻¹
kcat/Km [1]: 2830 ± 500 M⁻¹ s⁻¹
Km [2]: 23.8 ± 3.4 µM
kcat [2]: 0.155 ± 0.005 s⁻¹
kcat/Km [2]: 6500 ± 1000 M⁻¹ s⁻¹

B2: V257M hFMO3 (Homo sapiens; V257M) (protein)
chain: MGKKVAIIGAGVSGLASIRSCLEEGLEPTCFEKSNDIGGLWKFSDHAEEGRASIYKSVFSNSSKEMMCFPDFPFPDDFPNFMHNSKIQEYIIAFAKEKNLLKYIQFKTFVSSVNKHPDFATTGQWDVTTERDGKKESAVFDAVMVCSGHHVYPNLPKESFPGLNHFKGKCFHSRDYKEPGVFNGKRVLVVGLGNSGCDIATELSRTAEQVMISSRSGSWVMSRVWDNGYPWDMLLVTRFGTFLKNNLPTAISDWLYMKQMNARFKHENYGLMPLNGVLRKEPVFNDELPASILCGIVSVKPNVKEFTETSAIFEDGTIFEGIDCVIFATGYSFAYPFLDESIIKSRNNEIILFKGVFPPLLEKSTIAVIGFVQSLGAAIPTVDLQSRWAAQVIKGTCTLPSMEDMMNDINEKMEKKRKWFGKSETIQTDYIVYMDELSSFIGAKPNIPWLFLTDPKLAMEVYFGPCSPYQFRLVGPGQWPGARNAILTQWDRSLKPMQTRVVGRLQKPCFFFHWLKLFAIPILLIAVFLVLT
notes: as for B1
Km [3]: 60.1 ± 11.4 µM
kcat [3]: 0.0533 s⁻¹
kcat/Km [3]: 833 ± 167 M⁻¹ s⁻¹
Km [4]: 12.9 ± 1.3 µM
kcat [4]: 0.0717 s⁻¹
kcat/Km [4]: 5500 ± 667 M⁻¹ s⁻¹

From paper PMC3588010, “Effect of Human Flavin-Containing Monooxygenase 3 Polymorphism on the Metabolism of Aurora Kinase Inhibitors” (International Journal of Molecular Sciences, 2013)
